Assay in all cases: NCI tumour cell line growth inhibition, 48 h
The test system of assay [1] is PC-3 prostate.
Assay [2] deals with MDA-MB-231 breast.
Assay [3] relates to T-47D breast.
The subject of assay [4] is DU-145 prostate.
For assay [5], the system named is BT-549 breast.
Assay [6] has as its system HS 578T breast.
Assay [7] concerns 786-0 renal.
Assay [8] deals with MDA-N.
Assay [9] relates to XF 498 CNS.
Assay [10] relates to KM20L2 colon.
Assay [11] relates to DMS 114 small cell lung.
For assay [12], the system named is P388 leukemia.
Assay [13] relates to SNB-78 CNS.

Our source for the TGI and GI50 values is PubChem BioAssay (NCI).

Structures are written as SMILES. Where “and” joins values, the source holds several entries; their conditions need not be identical. Equal values may be shown once.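 Protocol summary: plate cells (96-well), add compound at 5 concentrations, incubate 48 h, interpolate endpoints linearly. GI50 is the concentration that inhibits growth by half. The concentration for full growth arrest is given as TGI.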

On to `Fc1ccc(C(OCCN2CC3CC2CN3)c2ccc(F)cc2)cc1` (configuration not stated), for which the TGI in assay [1], in [2], in assay [3], in assay [4], in assay [5] and in assay [6] was over 100 µM each time.

Take `O=S(=O)(c1ccc2ccccc2c1)N1CCN(S(=O)(=O)c2ccc3ccccc3c2)CC1`: the TGI in assay [7], in assay [1], in assay [2], in assay [3], in assay [4] and in assay [5] was over 100 µM in each case. Further, the TGI in assay [6] and in assay [8] was over 100 µM throughout.

For the compound `CO/C(=N\N=C(/c1ccccc1)C(F)(F)F)c1ccncc1`, the TGI in assay [1], in assay [2], in [3], in [4], in assay [5] and in assay [6] was over 100 µM in each case.

Regarding `CCN(CC)C(=S)SSCCO`, the GI50 in assay [1] is 14.9 µM; in [2], 15.3 µM; in [3], 15.4 µM; in assay [4] it was 37.8 µM; in [5] it was 16 µM; in assay [6] it was 16 µM. The TGI in assay [1] is 28.1 µM; in [2], 30.3 µM; in assay [3] it was 34.2 µM; in assay [4] it was over 100 µM; in [5], 31.9 µM; in [6] it was 34.7 µM.

For `Cc1cc(C)c(S(=O)(=O)N(CCCN)OCCCN)c(C)c1`, the TGI in assay [1], in assay [2], in assay [3], in [4], in assay [5] and in [6] was over 100 µM each time. In addition, the TGI in [8] was over 100 µM.

On to `O=C([O-])C1([n+]2c(-c3ccccc3)cc(-c3ccccc3)cc2-c2ccccc2)CC1`, for which the TGI was over 100 µM in assay [7]; over 100 µM in assay [1]; 45.2 µM in assay [3]; over 100 µM in assay [4]; over 100 µM in assay [6]; over 100 µM in assay [8].

Turning to `CC(=O)Nc1cc(/C=C\C(=O)N2CC(CCl)c3c2cc(N)c2ccccc32)n(C)n1` (configuration not stated), the TGI was over 100 µM in assay [1]; over 100 µM in [4]; 0.0411 µM and 0.0435 µM in [8]. For the same compound, the values for the GI50 in assay [5] and in assay [8] were 0.0225 µM and 0.0136 µM, respectively.

In the case of `N=C(N)c1ccc(N=Nc2c(O)ccc3cc(O)ccc23)cc1`, the TGI in [7], in assay [1], in assay [2], in assay [5] and in [6] was over 100 µM throughout.

Take `CC1=NN(C(=O)c2ccc(C)cc2)C(=O)C1N=Nc1ccccc1C(=O)O` (configuration not stated): the TGI in assay [9] is over 100 µM; in assay [10] it was over 100 µM; in assay [11], over 100 µM; in assay [12], over 51.5 µM; in assay [13], over 100 µM.

Turning to `CCOC(=O)[C@H]1Nc2c(cccc2[N+](=O)[O-])C2c3ccccc3CC21` (some centres not stated), the TGI in assay [9], in assay [10], in assay [11] and in [13] was over 100 µM in each case.

For `Cc1ccc2oc3c(ccc(=O)n3C)c(=O)c2c1`, the TGI in assay [1], in assay [2], in [3], in assay [4], in assay [6] and in assay [8] was over 100 µM in each case.

As for `O=c1[nH]c(=S)[nH]c2c(C3OC(CO)C(O)C3O)nsc12` (configuration not stated), the TGI in assay [1], in assay [3], in assay [4], in [5], in assay [6] and in assay [8] was over 100 µM each time.

Consider `N/C(=N\N=C/c1cc([N+](=O)[O-])cc([N+](=O)[O-])c1O)NO`, for which the TGI in assay [9] is 98.1 µM; in assay [10] it was over 100 µM; in assay [11], over 100 µM; in assay [12], 21.9 µM; in assay [13], over 100 µM.

As for `COc1cccc(/C=N/[N-]C(N)=O)c1[O-].[OH3+].[Pd+2]`, the TGI in assay [7] and in [10] was over 100 µM in each case.

For `CC(N)=O.[Cl][Pt][Cl].[NH-]c1ccn(C2OC(CO)C(O)C2O)c(=O)n1` (configuration not stated), the TGI in assay [7], in [1], in assay [2], in assay [3], in assay [4] and in assay [5] was over 100 µM each time. In [6], the TGI was over 100 µM.

With `CC1=CC(=O)c2c(O)c3c(c(O)c2C1=O)C1C(O)C(C3=O)C23C(=O)c4c(O)c(C)cc(O)c4C(O)=C2C(=O)CC(O)C13` (configuration not stated), the TGI in assay [7] is 5.69 µM; in [1], 10.2 µM; in assay [2], 9.89 µM; in assay [3] it was 5.75 µM; in assay [4] it was 3.61 µM; in [5], 17.9 µM. Also, the values for the TGI in assay [6] and in assay [8] were 3.44 µM and 2.89 µM, respectively.

Consider `O=C(/C=C\c1ccc(/C=C/C(=O)Nc2cccc(C3=NCCCN3)c2)cc1)Nc1cccc(C2=NCCCN2)c1`, for which the TGI in assay [10], in [12] and in assay [13] was over 100 µM throughout.

With `Clc1cccc(C2SCc3nc4ccccc4n32)c1` (configuration not stated), in assay [13], the TGI was 87.5 µM.
